In this experiment the target is T1, OGA (Mus musculus, UniProt Q9EQQ9).
T1 construct: from tissue; host or cells: mouse brain (right hemisphere sagittal sections, forebrain area)
T1 sequence (Q9EQQ9 1-916): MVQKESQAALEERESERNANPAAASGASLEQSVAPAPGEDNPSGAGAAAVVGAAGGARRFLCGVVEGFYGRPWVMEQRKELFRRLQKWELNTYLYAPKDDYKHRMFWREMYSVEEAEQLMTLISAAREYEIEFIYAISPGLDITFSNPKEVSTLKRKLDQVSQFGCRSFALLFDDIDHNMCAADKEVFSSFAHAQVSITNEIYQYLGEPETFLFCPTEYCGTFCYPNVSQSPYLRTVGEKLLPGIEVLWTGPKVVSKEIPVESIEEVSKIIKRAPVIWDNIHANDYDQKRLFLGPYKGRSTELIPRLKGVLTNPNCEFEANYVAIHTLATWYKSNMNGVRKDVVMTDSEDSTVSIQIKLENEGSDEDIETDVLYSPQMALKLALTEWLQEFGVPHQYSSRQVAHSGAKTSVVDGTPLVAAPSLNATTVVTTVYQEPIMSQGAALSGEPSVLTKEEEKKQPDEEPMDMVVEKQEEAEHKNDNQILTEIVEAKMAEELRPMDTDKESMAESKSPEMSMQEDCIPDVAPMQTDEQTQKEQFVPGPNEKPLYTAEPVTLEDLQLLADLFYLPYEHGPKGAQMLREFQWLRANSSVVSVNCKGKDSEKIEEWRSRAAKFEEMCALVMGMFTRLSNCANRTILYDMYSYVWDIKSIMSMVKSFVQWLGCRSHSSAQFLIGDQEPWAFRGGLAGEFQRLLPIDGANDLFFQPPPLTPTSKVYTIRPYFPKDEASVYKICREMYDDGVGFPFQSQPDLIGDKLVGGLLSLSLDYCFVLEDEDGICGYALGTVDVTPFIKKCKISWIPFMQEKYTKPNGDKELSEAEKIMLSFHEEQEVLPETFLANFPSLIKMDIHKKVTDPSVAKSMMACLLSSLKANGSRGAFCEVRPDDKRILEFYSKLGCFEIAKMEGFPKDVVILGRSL
Briefly: Ex vivo OGA occupancy assay using [3H]-ligand. It is filed as in vivo. The settings on record: po, male NMRI or C57Bl6j mice, p.o., 24 h after administration, forebrain area of brain sections, 3 nM [3H]-ligand, normalised to vehicle, read-out: Occupancy (% +/- sd). The method, then: Ex Vivo Oga Occupancy Assay Using [^3H]-Ligand
Drug Treatment and Tissue Preparation
Male NMRI or C57Bl6j mice were treated by oral (p.o.) administration of vehicle or compound. Animals were sacrificed 24 hours after administration. Brains were immediately removed from the skull, hemispheres were separated and the right hemisphere, for ex vivo OGA occupancy assay, was rapidly frozen in dry-ice cooled 2-methylbutane (−40° C.). […] sagittal sections were cut using a Leica CM 3050 cryostat-microtome (Leica, Belgium), thaw-mounted on microscope slides (SuperFrost Plus Slides, Thermo Fisher Scientific) and stored at −20° C. until use. After thawing, sections were dried under a cold stream of air. The sections were not washed prior to incubation. The 10 minutes incubation with 3 nM [^3H]-ligand was rigorously controlled. All brain sections (from compound-treated and vehicle-treated animals) were incubated in parallel. […]
Quantitative autoradiography and data analysis Radioactivity in the forebrain area of brain slices was measured using a β-imager with M3 vision analysis software (Biospace Lab, Paris). Specific binding was calculated as the difference between total binding and non-specific binding measured in Thiamet-G (10 μM) treated sections. […]

Drawing on patent US20210300943A1, “OGA INHIBITOR COMPOUNDS” (Janssen Pharmaceutica NV, priority 2018, published 2021), this text covers receptor occupancy for two molecules.

Turning to `Cc1cc(OC[C@H]2CCCN(C(C)c3nc4c(cc3F)OCCO4)C2)cc(C)n1` (single isomer, unassigned) [Product 155], the receptor occupancy at 25 mg/kg was found to be 92.7%.
On to `Cc1cc([C@H]2CCCN(C(C)c3cnc4c(c3)OCCN4)C2)cc(C)n1` (single isomer, unassigned) [Product 135], for which the receptor occupancy at 25 mg/kg is 20.7%.
